Experimental data reported in patent publication US8580843B2, “Use of diindolylmethane (DIM) compounds and derivatives as neuroprotective agents” (Colorado State University Research Foundation, priority 2008, dated 2013).

Experiments:
[1] = test system: proximal NF-κB enhancer element of the Nos2 promoter; assay: Chromatin immunoprecipitation (ChIP) at the proximal NF-κB enhancer element of the Nos2 promoter in astrocytes; format: cell-based, mouse; settings: 10 μM co-treatment; FIG. 5
Protocol: Chromatin Immunoprecipitation (ChIP). ChIP procedures were adapted from a previously published report (Weinmann and Farnham, 2002) and optimized for primary astrocytes according to recent studies from our laboratory. Astrocytes were grown to confluence in 10 cm plates (Approx. 8.8×10^6 cells) and were treated for 3 hours with MPTP (10 μM), TNF-α (10 pg/ml) and IFN-γ (1 ng/ml) with or without DIM-C-pPhtBu (10 μM), rosiglitazone (10 μM) or a DMSO vehicle control for 3 hours prior to analysis. DNA was sheared into approximate 500 bp fragments by three ten-second pulses using a Tekmar Sonic Disrupter (Tekmar Co., Cincinnati, Ohio) set at 30% output, followed by collection of 10% input controls and addition of 2 μg precipitating antibody. Immune complexes were allowed to form overnight at 4° C. with gentle agitation, followed by the addition of protein-G magnetic beads (Active Motif, Carlsbad, Calif.) for an additional 90 min. Immunopurified DNA was isolated via phenol/chloroform extraction and subject to PCR using primers designed around the proximal murine Nos2 NF-κB binding region (Xie et al., 1992) (forward: 5′-ATGGCCTTGCATGAGGATACACCA-3′ Chromatin Immunoprecipitation (ChIP). ChIP procedures were adapted from a previously published report (Weinmann and Farnham, 2002) and optimized for primary astrocytes according to recent studies from our laboratory. Astrocytes were grown to confluence in 10 cm plates (Approx. 8.8×10^6 cells) and were treated for 3 hours with MPTP (10 μM), TNF-α (10 pg/ml) and IFN-γ (1 ng/ml) with or without DIM-C-pPhtBu (10 μM), rosiglitazone (10 μM) or a DMSO vehicle control for 3 hours prior to analysis. DNA was sheared into approximate 500 bp fragments by three ten-second pulses using a Tekmar Sonic Disrupter (Tekmar Co., Cincinnati, Ohio) set at 30% output, followed by collection of 10% input controls and addition of 2 μg precipitating antibody. Immune complexes were allowed to form overnight at 4° C. with gentle agitation, followed by the addition of protein-G magnetic beads (Active Motif, Carlsbad, Calif.) for an additional 90 min. Immunopurified DNA was isolated via phenol/chloroform extraction and subject to PCR using primers designed around the proximal murine Nos2 NF-κB binding region (Xie et al., 1992) (forward: 5′-ATGGCCTTGCATGAGGATACACCA-3′(SEQ ID NO:5); reverse: 5′-GAGTCTCAGTCTTCAACTCCCTGT-3′(SEQ ID NO:6)). Amplicons were separated by 2% agarose gel electrophoresis and stained with ethidium bromide.
To determine the mechanism by which DIM-C-pPhtBu modulates NF-κB activity, the ChIP assay was used to identify specific DNA-protein interactions at the proximal NF-κB enhancer element (-86 to -76) of the Nos2 promoter.
Primary cultured astrocytes were treated with MPTP and TNF/IFN in the presence or absence of DIM-C-pPhOCH3 (DIMS, 1 uM) or rosiglitazone (Ro, 10 uM) and cellular lysates subjected to chromatin immunoprecipitation (ChIP) assay for HDAC3 association with the proximal NF-kB binding site in the Nos2 promoter. HDAC3 is a transcriptional co-repressor of Nos2 gene expression.

NF-kB-regulated genes = assay: qPCR array analysis of NF-kB-regulated transcripts in primary astrocytes; format: cell-based; settings: astrocytes + MPTP and TNF/IFN; DIM-C-pPhOCH3 1 uM, DIM-C-pPhtBu concentration not given; FIG. 11(A)
Protocol: Expression of inflammatory genes in astrocytes is largely regulated through the NF-kB signaling pathway. Primary cultured astrocytes were treated with MPTP and TNF/IFN in the presence or absence DIM-C-pPhOCH3 (DIMS, 1 uM), DIM-C-pPhtBu (DIM4), rosiglitazone (Ro, 10 uM), or vehicle (DMSO) and subjected to qPCR array analysis of NF-kB-regulated transcripts (Superarray Biosciences). […] (n=4 biological replicates)

NOS2 protein = assay: Immunoblotting of NOS2 protein in astrocytes exposed to MPTP and TNF-α/IFN-γ; format: cell-based, mouse; settings: FIG. 7(C), concentration not given
Description: Primary Cell Isolation. Cortical astrocytes were isolated from day-1 old C57B1/6 or transgenic mouse pups according to procedures described previously (Aschner and Kimelberg, 1991), and purity confirmed through immunofluorescent staining using antibodies against GFAP and Iba1. Briefly, pups were euthanized by decapitation under isofluorane anesthesia and cortices (astrocytes) or striatum (neurons) rapidly dissected out, and meninges removed. Tissue was subject to digestion with Dispase (1.5 U/ml), and selection of astrocytes was performed by complete media change 24 hrs after plating to remove non-astroglial cell types by serum shock. This method routinely results in cultures that are approximately 99% pure astrocytes, with less than 1% contaminating microglial cells (Supplementary FIG. 1). Astrocyte cultures were maintained at 37° C. and 5% CO2 in minimum essential media supplemented with 10% heat-inactivated fetal bovine serum and a penicillin (0.001 mg/ml), streptomycin (0.002 mg/ml), and neomycin (0.001) antibiotic cocktail. Cell media was changed 24 hrs prior to all treatments. […]
Western Blotting. […] Protein was quantified using the BCA assay (Pierce, Rockford Ill.), and 20 μg of protein were separated by standard SDS-PAGE using a 6% slab gel (BioRad, Hercules Calif.) followed by semi-dry transfer to polyvinylidene fluoride (PVDF) membrane (Pall Corp., Pensacola, Fla.). […]

SMILES	Binding of p65 to the Nos2 promoter induced by MPTP and cytokines [1]	Recruitment of PPAR-γ to the proximal NF-κB response element [1]	Stabilization of NCoR2 at the proximal NF-κB response element [1]	Neuroinflammatory gene expression (TNF Receptor, Toll Receptor, Interleukin 1beta) (NF-kB-regulated genes)	Suppression of NOS2 protein expression (NOS2 protein)
CC(C)(C)c1ccc(C(c2c[nH]c3ccccc23)c2c[nH]c3ccccc23)cc1 [DIM-C-pPhtBu, 1,1-bis(3′-indolyl)-1-(p-t-butylphenyl)methane]	blocked	did not recruit PPAR-γ	nor did it stabilize NCoR2	suppressed neuroinflammatory gene expression	–
COc1ccc(C(c2c[nH]c3ccccc23)c2c[nH]c3ccccc23)cc1 [DIM-C-pPhOCH3, 1,1-bis(3′-indolyl)-1-(p-methoxyphenyl)methane]	–	–	–	suppressed neuroinflammatory gene expression	suppression of NOS2 protein expression
CN(CCOc1ccc(CC2SC(=O)NC2=O)cc1)c1ccccn1 (stereo not drawn) [rosiglitazone, 5-((4-(2-(methyl-2-pyridinylamino)ethoxy)phenyl)methyl)-2,4-thiazolidinedione, reference compound]	–	recruited PPAR-γ	prevented degradation of NCoR2	–	suppression of NOS2 protein expression
